ChEMBL document CHEMBL1201862, “PubChem BioAssay data set” (2004)
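How tested: cells in 96-well plates exposed to compound for 48 hours at five concentrations. GI50 marks 50% less growth.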 The source made the active and inactive calls. Cut-off read from the data, not from the text of the source: active = GI50 up to about 1.1 µM and inactive = higher.

Key:
Assay in all cases: NCI tumour cell line growth inhibition, 48 h
[1] = system: A549
[2] = system: ACHN
[3] = system: BT-549
[4] = system: HCT-116
[5] = system: HL-60
[6] = system: KM-20L2
[7] = system: M14
[8] = system: MDA-MB-231
[9] = system: MDA-N
[10] = system: NCI-H23
[11] = system: OVCAR-4
[12] = system: PC-3
[13] = system: RPMI-8226
[14] = system: SF-268
[15] = system: SK-MEL-28
[16] = system: SR
[17] = system: SW-620
[18] = system: T47D
[19] = system: UACC-257
[20] = system: UO-31

SMILES | GI50 [1] | GI50 [2] | GI50 [3] | GI50 [4] | GI50 [5] | GI50 [6] | GI50 [7] | GI50 [8] | GI50 [9] | GI50 [10] | GI50 [11] | GI50 [12] | GI50 [13] | GI50 [14] | GI50 [15] | GI50 [16] | GI50 [17] | GI50 [18] | GI50 [19] | GI50 [20]
O=C1c2ccccc2C(=O)c2c1oc1cc(O)c(Cl)cc21 | 3.01 µM (inactive) | 7 µM (inactive) | 4.97 µM (inactive) | 5.27 µM (inactive) | 6.92 µM (inactive) | 2.67 µM (inactive) | 3.1 µM (inactive) | 12.8 µM (inactive) | 1.75 µM (inactive) | 0.519 µM (active) | 8.18 µM (inactive) | 10.4 µM (inactive) | 4.54 µM (inactive) | 10.8 µM (inactive) | 3.05 µM (inactive) | 11.8 µM (inactive) | 8.45 µM (inactive) | 16.5 µM (inactive) | 2.33 µM (inactive) | 11.9 µM (inactive)
CN(C)CCCNc1c2ccccc2nc2cccc([N+](=O)[O-])c12 | < 0.001 µM (active) | < 0.001 µM (active) | 0.00252 µM (active) | 0.00152 µM (active) | 0.00362 µM (active) | 0.01 µM (active) | < 0.001 µM (active) | < 0.001 µM (active) | 0.00102 µM (active) | < 0.001 µM (active) | < 0.001 µM (active) | < 0.001 µM (active) | < 0.001 µM (active) | 0.00123 µM (active) | 0.00235 µM (active) | < 0.001 µM (active) | < 0.001 µM (active) | 0.0158 µM (active) | 0.00275 µM (active) | 0.013 µM (active)
COc1ccc(Br)c2c1CC(C(=O)O)CC2 (stereo not given) | > 100 µM (inactive) | > 100 µM (inactive) | > 100 µM (inactive) | > 100 µM (inactive) | > 100 µM (inactive) | > 100 µM (inactive) | > 100 µM (inactive) | > 100 µM (inactive) | > 100 µM (inactive) | > 100 µM (inactive) | > 100 µM (inactive) | > 100 µM (inactive) | > 100 µM (inactive) | > 100 µM (inactive) | > 100 µM (inactive) | > 54 µM (inactive) | > 100 µM (inactive) | > 100 µM (inactive) | > 100 µM (inactive) | > 100 µM (inactive)
